Laboratory results taken from patent US20230381774A1, “MICROFLUDIC LAB-ON-CHIP DEVICE, MATRIX, SMALL MOLECULES AND THREE-DIMENSIONAL SPHEROIDS FOR CELL REPROGRAMMING” (The Regents of the University of California, priority 2022, published 2023).
Entries after “also recorded” stand apart in the source; their conditions may differ.

Experiments:
Type in all cases: cell-based, mouse
ERK = experiment: Downstream ERK signaling (Western blot)
Experimental: Fibroblasts were lysed and collected in Laemmli buffer ([…] Tris-HCl, 10% glycerol, 2% SDS, 5% 2-mercaptoethanol, 0.002% bromophenol blue) containing RIPA buffer (50 mM Tris-HCl, 150 mM NaCl, 1% Triton-X-100, 0.1% SDS, 10 mM NaF, 0.5% sodium deoxycholate) along with protease inhibitors (PMSF, Na3VO4 and Leupeptin) on ice. Protein lysates were centrifuged to pellet cell debris, and the supernatant was collected and used in further analysis. Protein samples were run using SDS-PAGE and transferred to polyvinylidene fluoride (PVDF) membranes. Membranes were blocked in 3% nonfat milk and incubated with primary antibodies overnight. Primary antibodies include pFAK, FAK, αSMA, Calponin, pERK, ERK, and GAPDH. Membranes were washed with Tris-Buffered Saline+0.05% Tween-20 and incubated with HRP-conjugated IgG secondary antibodies (Santa Cruz Biotechnologies) for one hour. Protein bands were visualized using Western Lightning™ Plus—Enhanced Chemiluminscence Substrate (Perkin Elmer Life & Analytical Sciences) and imaged on a ChemiDoc XRS system (Bio-Rad).

[1] = tested on: DNA methyltransferase (DNMT); experiment: DNMT activity assay on nuclear extracts of treated fibroblasts; settings: 10 μM blebbistatin or 5 μM PF573228, 2 hours, vs DMSO
Experimental: Nuclear protein extractions were isolated from 5×10^5 fibroblasts treated with vehicle control (DMSO), 10 μM blebbistatin or 5 μM PF573228 for 2 hours using a nuclear extraction kit (EpiGentek, OP-0002), in accordance with the manufacturer's instructions. HAT, HDAC, H3K4 HMT, H3K4 HDM and DNMT activity were measured using the HAT activity/inhibition assay (EpiGentek, P-4003-048), HDAC activity/inhibition assay (EpiGentek, P-4034-096), Histone methyltransferase (H3K4 specific) activity/inhibition assay (EpiGentek, P-3002-1), Histone Demethylase (H3K4 specific) activity/inhibition assay (EpiGentek, P-3074-48), and DNMT activity/inhibition assay (EpiGentek, P-3009-048), respectively. Per the manufacturer's instructions, 20 μg of nuclear extract was added into the assay wells and incubated at 37° C. for 90 minutes. After adding the color developer solution, the absorbance was measured using a plate reader (Infinite […], 30050303) at 450 nm for all the assays with the exception of the Histone Demethylase (H3K4 specific) activity/inhibition assay where we measured the fluorescence using a fluorescence microplate reader at 530 EX/590 EM nm.

[2] = tested on: promoter or enhancer regions of neuronal and mesenchymal genes; experiment: ATAC-seq chromatin accessibility; settings: 10 μM blebbistatin or 5 μM PF573228, 2 hours
Experimental: A total of 1,000,000 fibroblasts treated with vehicle control (DMSO), 10 μM blebbistatin or 5 μM PF573228 were collected after 2 hours and stored at −80° C. prior to sample processing. ATAC-seq was performed as described previously^47. In brief, frozen cells were thawed and washed once with PBS and then resuspended in 500 μL of cold PBS. The cell number was assessed by Cellometer Auto 2000 (Nexcelom Bioscience, Massachusetts, USA). 100,000 cells were then added to ATAC lysis buffer and centrifuged at 500 g in a pre-chilled centrifuge for 5 minutes. Supernatant was removed and the nuclei were resuspended in 50 μL of tagmentation reaction mix by pipetting up and down. The reactions were incubated at 37° C. for 30 minutes in a thermomixer with shaking at 1,000 r.p.m., and then cleaned up using the MiniElute reaction clean up kit (Qiagen). Tagmented DNA was amplified with barcoded primers. Library quality and quantity were assessed with Qubit 2.0 DNA HS Assay (ThermoFisher), Tapestation High Sensitivity D1000 Assay (Agilent Technologies), and QuantStudio® 5 System (Applied Biosystems). Equimolar pooling of libraries was performed based on QC values and sequenced on an Illumina® NovaSeq (Illumina, California, USA) with a read length configuration of 150 PE for [100]M PE reads (50M in each direction) per sample.
FASTQ files were trimmed with Trim Galore and cutadapt^48. Pair-ended reads were then aligned to the mouse reference genome (mm10) with Bowtie2^49. Mitochondrial reads and PCR duplicates were removed using SAMtools^50 and Picard (http://broadinstitute.github.io/picard/), respectively. Peaks were called over input using MACS3^51, and only peaks outside the ENCODE blacklist region were kept. All peaks from all samples were merged and featureCount^52 was used to count the mapped reads for each sample.

iN cells = experiment: Immunostaining of mature neuronal markers in iN cells; settings: iN cells derived in presence of inhibitor
Experimental: (§1) For immunostaining, cells were fixed with 4% paraformaldehyde (Electron Microscopy Sciences), permeabilized with 0.5% Triton-X-100 (Sigma), and blocked with 5% donkey serum (Jackson Immunoresearch) in phosphate buffered saline (PBS). For actin-cytoskeleton staining, samples were incubated with fluorescein isothiocyanate-conjugated phalloidin (Invitrogen) for 1 hour. Primary antibodies were incubated for 1 hour at room temperature or overnight at 4° C., followed by 1-hour incubation with Alexa 488 and/or Alexa 546-labeled secondary antibodies (Molecular Probes). Nuclei were stained with 4,6-diamino-2-phenylindole (DAPI) (Invitrogen).

fibroblasts = experiment: Cell morphology, actin and focal adhesion immunostaining; settings: 24 hours
Experimental: as §1

CS(=O)(=O)c1cccc(CNc2nc(Nc3ccc4c(c3)CCC(=O)N4)ncc2C(F)(F)F)c1 [PF573228]
downstream ERK signaling (ERK): modulated downstream ERK signaling
DNMT activity [1]: a reduction in 5-mC marks and DNMT activity
chromatin accessibility of mesenchymal genes [2]: slightly decrease the accessibility of mesenchymal genes
chromatin accessibility of neuronal genes (Ascl1, Brn2, Myt1l, Tubb3) [2]: could increase the accessibility at the promoter or enhancer regions of neuronal genes
mature neuronal marker expression of derived iN cells (iN cells): expressed neuronal markers, including NeuN, MAP2, and synapsin; also recorded: displaying a typical neuronal morphology and co-expressing mature neuronal markers, NeuN, MAP2 and synapsin

Cc1ccc2c(c1)C(=O)C1(O)CCN(c3ccccc3)C1=N2 (stereo not drawn) [blebbistatin]
DNMT activity [1]: a decrease in DNA methyltransferase (DNMT) activity
actin fibers (fibroblasts): fewer intact actin fibers
paxillin punctate (fibroblasts): fewer positive paxillin punctate
cell morphology and spreading (fibroblasts; 10 μM): induced dramatic changes in cell morphology and reduced cell spreading
chromatin accessibility of mesenchymal genes [2]: slightly decreased the accessibility at the promoters or enhancer regions of some mesenchymal genes
chromatin accessibility of neuronal genes (Ascl1, Brn2, Myt1l, Tubb3) [2]: could increase the accessibility at the promoter or enhancer regions of neuronal genes
mature neuronal marker expression of derived iN cells (iN cells): expressed NeuN, microtubule-associated protein 2 (MAP2), and synapsin
